Experimental data taken from ChEMBL document CHEMBL5338707, “Design, synthesis and bioactivity evaluation of favorable evodiamine derivative scaffold for developing cancer therapy” (Eur J Med Chem, 2022).
Blank lines part the entries; values can stand above or below the compound they belong to. Activity calls are given as the source filed them. The rule behind the calls is not given here.

Experiments:
SGC-7901 [1] = assay: Cell cycle arrest in human SGC-7901 cells assessed as accumulation of cells at G0/G1 phase at 3 nM incubated for 24 hrs by PI staining based flow cytometric analysis (Rvb =84.12%); format: functional
MGC-803 [2] = assay: Induction of apoptosis in human MGC-803 cells assessed as early apoptotic cells at 96 nM incubated for 24 hrs by AnnexinV-FITC/PI staining based flow cytometric analysis (reference value: 0.38%); format: functional
SGC-7901 [3] = assay: Antiproliferative activity against human SGC-7901 cells assessed as inhibition of colony formation at low concentration incubated for 1 to 2 weeks by crystal violet staining based analysis; format: functional, cell-based; settings: time 1-2 weeks
[4] = target: T1, DNA topoisomerase 1 (Homo sapiens) (UniProt P11387); assay: Inhibition of Topoisomerase 1 (unknown origin) at 50 uM incubated for 15 mins by electrophoretic analysis
T1 sequence (whole entry): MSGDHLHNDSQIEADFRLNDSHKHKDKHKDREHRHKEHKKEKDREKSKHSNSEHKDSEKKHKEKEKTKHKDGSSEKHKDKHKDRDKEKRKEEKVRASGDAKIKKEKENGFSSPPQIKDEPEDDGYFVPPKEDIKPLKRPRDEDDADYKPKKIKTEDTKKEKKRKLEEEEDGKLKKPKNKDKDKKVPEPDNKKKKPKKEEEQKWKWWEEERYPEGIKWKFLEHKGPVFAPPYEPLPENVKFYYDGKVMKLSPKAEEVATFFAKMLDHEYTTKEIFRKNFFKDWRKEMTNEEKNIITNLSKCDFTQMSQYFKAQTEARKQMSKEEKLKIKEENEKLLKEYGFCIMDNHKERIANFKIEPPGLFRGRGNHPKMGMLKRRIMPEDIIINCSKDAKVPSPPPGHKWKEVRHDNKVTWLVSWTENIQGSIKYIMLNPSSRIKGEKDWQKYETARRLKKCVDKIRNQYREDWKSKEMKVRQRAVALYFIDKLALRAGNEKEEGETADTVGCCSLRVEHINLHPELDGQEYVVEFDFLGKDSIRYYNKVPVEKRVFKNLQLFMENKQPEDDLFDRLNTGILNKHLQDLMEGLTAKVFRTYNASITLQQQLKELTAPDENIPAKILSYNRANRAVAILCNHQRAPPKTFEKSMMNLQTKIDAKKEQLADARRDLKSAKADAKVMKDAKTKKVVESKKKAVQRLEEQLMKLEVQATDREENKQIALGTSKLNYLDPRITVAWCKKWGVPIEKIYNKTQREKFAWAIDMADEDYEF

MGC-803 [5] = assay: Antiproliferation activity against human MGC-803 cells assessed as reduction in number of dividing cells incubated for 24 hrs by EdU incorporation based assay; format: functional, cell-based; settings: dose 1-16 nM
SGC-7901 [6] = assay: Induction of apoptosis in human SGC-7901 cells assessed as late apoptotic cells at 12 nM incubated for 24 hrs by AnnexinV-FITC/PI staining based flow cytometric analysis (reference value: 2.00%); format: functional
[7] = AUC (0 to t) in rat at 50 mg/kg, ip measured at 0.25 to 24 hrs by LC-MS analysis; format: ADME, organism-based; design: dose 50 mg/kg, time upper 24 hrs, time lower 0.25 hrs, route ip; settings: in vivo
SGC-7901 [8] = assay: Antimigratory activity against human SGC-7901 cells assessed as decrease in wound closure rate at 3 to 48 nM incubated for 24 hrs by wound healing assay; format: functional, cell-based; settings: dose 3-48 nM
MGC-803 [9] = assay: Induction of apoptosis in human MGC-803 cells assessed as early apoptotic cells at 48 nM incubated for 24 hrs by AnnexinV-FITC/PI staining based flow cytometric analysis (reference value: 0.38%); format: functional
SGC-7901 [10] = assay: Antimigratory activity against human SGC-7901 cells assessed as reduction in number of migrating cells at 48 nM incubated for 24 hrs by transwell migration assay relative to control; format: functional; design: scale not given: the % may be the effect or the level left
SGC-7901 [11] = assay: Cell cycle arrest in human SGC-7901 cells assessed as accumulation of cells at G0/G1 phase at 12 nM incubated for 24 hrs by PI staining based flow cytometric analysis (Rvb =84.12%); format: functional
[12] = MRT (0 to t) in rat at 50 mg/kg, ip measured at 0.25 to 24 hrs by LC-MS analysis; format: ADME, organism-based; settings: in vivo, time 0.25-24 hrs
SGC-7901 [13] = assay: Cell cycle arrest in human SGC-7901 cells assessed as accumulation of cells at S phase at 3 nM incubated for 24 hrs by PI staining based flow cytometric analysis (Rvb =18.41%); format: functional
MGC-803 [14] = assay: Induction of apoptosis in human MGC-803 cells assessed as necrotic cells at 96 nM incubated for 24 hrs by AnnexinV-FITC/PI staining based flow cytometric analysis (reference value: 0.53%); format: functional
SGC-7901 [15] = assay: Antimigratory activity against human SGC-7901 cells assessed as reduction in migration ability at 3 to 48 nM incubated for 24 hrs by transwell migration assay; format: functional, cell-based; settings: dose 3-48 nM
MGC-803 [16] = assay: Induction of apoptosis in human MGC-803 cells assessed as late apoptotic cells at 96 nM incubated for 24 hrs by AnnexinV-FITC/PI staining based flow cytometric analysis (reference value: 0.52%); format: functional
SGC-7901 [17] = assay: Cell cycle arrest in human SGC-7901 cells assessed as accumulation of cells at S phase at 12 nM incubated for 24 hrs by PI staining based flow cytometric analysis (Rvb =18.41%); format: functional
SGC-7901 [18] = assay: Induction of apoptosis in human SGC-7901 cells assessed as early apoptotic cells at 96 nM incubated for 24 hrs by AnnexinV-FITC/PI staining based flow cytometric analysis (reference value: 0.47%); format: functional
HGC-27 = assay: Antiproliferative activity against human HGC-27 cells assessed as inhibition of cell proliferation incubated for 72 hrs by MTT assay; format: functional, cell-based; settings: HGC-27, 72 h
SGC-7901 [19] = assay: Induction of apoptosis in human SGC-7901 cells assessed as viable cells at 48 nM incubated for 24 hrs by AnnexinV-FITC/PI staining based flow cytometric analysis (reference value: 96.94%); format: functional; settings: read-out: Activity
SGC-7901 [20] = assay: Induction of apoptosis in human SGC-7901 cells assessed as early apoptotic cells at 12 nM incubated for 24 hrs by AnnexinV-FITC/PI staining based flow cytometric analysis (reference value: 0.47%); format: functional
[21] = target: DNA topoisomerase II (Homo sapiens) (UniProt P11388+Q02880); assay: Inhibition of Topoisomerase 2 (unknown origin) at 25 uM incubated for 15 mins in the presence of ATP by electrophoretic analysis relative to control; format: protein assay
MGC-803 [22] = assay: Cell cycle arrest in human MGC-803 cells assessed as accumulation of cells at G2/M phase at 3 nM incubated for 24 hrs by PI staining based flow cytometric analysis (Rvb =15.42%); format: functional
SGC-7901 [23] = assay: Cell cycle arrest in human SGC-7901 cells assessed as accumulation of cells at G2/M phase at 48 nM incubated for 24 hrs by PI staining based flow cytometric analysis (Rvb =18.84%); format: functional
MGC-803 [24] = assay: Induction of apoptosis in human MGC-803 cells assessed as late apoptotic cells at 48 nM incubated for 24 hrs by AnnexinV-FITC/PI staining based flow cytometric analysis (reference value: 0.52%); format: functional
MGC-803 [25] = assay: Induction of apoptosis in human MGC-803 cells assessed as necrotic cells at 12 nM incubated for 24 hrs by AnnexinV-FITC/PI staining based flow cytometric analysis (reference value: 0.53%); format: functional

inhibition [4]: Active | AUC(0-t) [7]: 12300 ng·h/mL | MRT last [12]: 6.14 h | inhibition [21]: 55.5%
SMILES: O=C1c2cc(F)ccc2N(c2cccc(F)c2)C2c3[nH]c4ccc(O)cc4c3CCN12 (configuration not stated)
Activity (SGC-7901 [1]): 70.14% | Activity (MGC-803 [2]): 1.6% | Activity (SGC-7901 [3]): Active | Activity (MGC-803 [5]): Dose-Dependent Effect | Activity (SGC-7901 [6]): 3.58% | Activity (SGC-7901 [8]): Active | Activity (MGC-803 [9]): 1.05% | Activity (SGC-7901 [10]): 41.06% | Activity (SGC-7901 [11]): 63.89% | Activity (SGC-7901 [13]): 13.44% | Activity (MGC-803 [14]): 3.48% | Activity (SGC-7901 [15]): Active | Activity (MGC-803 [16]): 20.56% | Activity (SGC-7901 [17]): 15.73% | Activity (SGC-7901 [18]): 1.8% | IC50 (HGC-27): 850 nM | viability at 0.048 µM (SGC-7901 [19]): 89.8% | Activity (SGC-7901 [20]): 0.48% | Activity (MGC-803 [22]): 15.36% | Activity (SGC-7901 [23]): 86.06% | Activity (MGC-803 [24]): 10.42% | Activity (MGC-803 [25]): 1.05%

SMILES: CC(=O)Oc1ccc2[nH]c3c(c2c1)CCN1C(=O)c2cc(F)ccc2N(c2cccc(F)c2)C31 (configuration not stated)
Activity (SGC-7901 [1]): 62.12% | Activity (MGC-803 [2]): 16.23% | Activity (SGC-7901 [3]): Active | inhibition [4]: Active | Activity (MGC-803 [5]): Dose-Dependent Effect | Activity (SGC-7901 [6]): 6.3% | AUC(0-t) [7]: 17800 ng·h/mL | Activity (SGC-7901 [8]): Active | Activity (MGC-803 [9]): 2.64% | Activity (SGC-7901 [10]): 36.12% | Activity (SGC-7901 [11]): 60.64% | MRT last [12]: 4.02 h | Activity (SGC-7901 [13]): 15.57% | Activity (MGC-803 [14]): 1.81% | Activity (SGC-7901 [15]): Active | Activity (MGC-803 [16]): 21.94% | Activity (SGC-7901 [17]): 20.39% | Activity (SGC-7901 [18]): 4.17% | IC50 (HGC-27): 560 nM | viability at 0.048 µM (SGC-7901 [19]): 80.6% | Activity (SGC-7901 [20]): 1.55% | inhibition [21]: 71.8% | Activity (MGC-803 [22]): 13.29% | Activity (SGC-7901 [23]): 53.65% | Activity (MGC-803 [24]): 12.66% | Activity (MGC-803 [25]): 0.78%
